Read-outs that look alike come from different tables or passages of the source.
Assays:
[1] = tested on: Con A-induced splenic lymphocytes; test: Con A-induced primary splenocyte proliferation model (MTT, immunosuppressive activity assay); format: cell-based, ICR mice; conditions: Mus musculus, Splenic lymphocyte, Con A 2.5 mg/L, 48 h culture, read-out: IC50 (concentration that reduced cell proliferation by 50%)
Method: (§1) Male ICR mice (Weight, 10 to 22 g) were provided by the Comparative Medicine Center of Yangzhou University. The animal studies were approved by the Animal Ethics Committee of China Pharmaceutical University. The animals were cared for according to the regulations of the Animal Committee.
(§2) ICR mice were killed by cervical dislocation, and the spleens were removed aseptically. Mononuclear cell suspensions were prepared and re-suspended in RPMI 1640 medium (containing 10% FBS). The resulting splenic lymphocytes suspensions (4×10^6 cells/mL) were cultured in 96-well plate (100 μL suspensions each well). In the control group, 100 μL 10% FBS in RPMI1640 was added into each well (five replicates of wells). In the LPS or Con A model group, 100 μL LPS or Con A (2.5 mg/L of final concentration) was added into each well (five replicates of wells). For the positive drug treatment group, 50 μL of LPS or Con A (2.5 mg/L of final concentration) and 50 μL of FTY720 with a set of final concentrations (0.001, 0.003, 0.01, 0.03, 0.1, 0.3, 1, 3 and 10 μM) were added into each well. In the test group, 50 μL of LPS or Con A (2.5 mg/L of final concentration) and 50 μL of the four SPL fractions with a set of final concentrations were added into each well. […] Then the OD490 readings were taken with a microplate reader (Bio Tek, Tigan Street Winooski, Vt., USA). […]

[2] = tested on: LPS-induced splenic lymphocytes; test: LPS-induced primary splenocyte proliferation model (MTT, immunosuppressive activity assay); format: cell-based, ICR mice; conditions: Mus musculus, Splenic lymphocyte, LPS 2.5 mg/L, 48 h culture, read-out: IC50 (concentration that reduced cell proliferation by 50%)
Method: as §1, §2

SMILES: CCCCCCCCc1ccc(CCC(N)(CO)CO)cc1 [FTY720]
- IC50 [1]: 0.11 µg/mL
- IC50 ([1]; value in brackets): 310 nM
- IC50 [2]: 0.15 µg/mL
- IC50 ([2]; value in brackets): 430 nM

Source: patent US11357806B2, “Method of isolating sphingolipids from cordyceps and their use” (Macau University of Science and Technology, priority 2015, dated 2022)
